{"source": "PubChem BioAssay AID1259409", "about": "(Chemical Carcinogenesis Research Information System (CCRIS), 2018)", "origin": "cited, not measured here", "test_system": "rodent chemically induced tumor inhibition, incidence and multiplicity", "test": "CCRIS tumor inhibitor studies", "details": "Route [Inhibitor]: ORAL, Species: RAT; for tumour outcome (control, treated, inhibition, significance): Promoter: NONE USED", "data": [{"smiles": "CC(=O)OC/C=C(C)/C=C/C=C(C)/C=C/C1=C(C)CCCC1(C)C", "values": [{"measurement": "outcome", "setting": "Carcinogen: N-BIS-(2-HYDROXYPROPYL)NITROSAMINE [53609-64-6], Dose [Inhibitor]: 0, 0.1% IN DIET 4 WK BEGINNING 1 WK POST CARCINOGEN DOSE (STUDY DURATION: 5 WK), Strain/Sex: F344/DUCRJ/MALE, Target Tissue: Type of Lesion: THYROID GLAND: ADENOMATOUS GROWTH PATTERN, Dose [Carcinogen]: 2800 MG/KG BW ONCE (STUDY DURATION: 5 WK), Promoter: NONE", "value": "0%, 0%, 0%, not significant"}, {"measurement": "tumour outcome (control, treated, inhibition, significance)", "setting": "Carcinogen: N-METHYL-N-NITROSOUREA, 684-93-5, Dose [Inhibitor]: 0, 328 MG/KG DIET FOR 88 D BEGINNING 2 D POST CARCINOGEN DOSE (STUDY DURATION: 90 D), Strain/Sex: SPRAGUE-DAWLEY/FEMALE, Target Tissue: Type of Lesion: MAMMARY GLAND: ADENOCARCINOMA, Dose [Carcinogen]: 45 MG/KG BW ONCE", "value": "100%, 73%, 27%, p<0.05"}, {"measurement": "tumour outcome (control, treated, inhibition, significance)", "setting": "Carcinogen: N-METHYL-N-NITROSOUREA, 684-93-5, Dose [Inhibitor]: 0, 328 MG/KG OF DIET BEGINNING 2 D POST CARCINOGEN DOSE AND CONTINUING FOR DURATION OF STUDY (STUDY DURATION: 90 D), Strain/Sex: SPRAGUE-DAWLEY/FEMALE, Target Tissue: Type of Lesion: MAMMARY GLAND: ADENOCARCINOMA, Dose [Carcinogen]: 45 MG/KG BW ONCE AT 50 D OF AGE", "value": "100%, 80%, 20%, not calculated"}, {"measurement": "tumour outcome (control, treated, inhibition, significance)", "setting": "Carcinogen: N-METHYL-N-NITROSOUREA, 684-93-5, Dose [Inhibitor]: 0, 328 MG/KG OF DIET FOR DURATION OF STUDY BEGINNING 1 WK PRIOR TO CARCINOGEN TREATMENT (STUDY DURATION: 117 D), Strain/Sex: SPRAGUE-DAWLEY /FEMALE, Target Tissue: Type of Lesion: MAMMARY GLAND: ADENOCARCINOMA, Dose [Carcinogen]: 50 MG/KG BW ONCE", "value": "100%, 84%, 16%, not significant"}, {"measurement": "tumour outcome (control, treated, inhibition, significance)", "setting": "Carcinogen: N-METHYL-N-NITROSOUREA, 684-93-5, Dose [Inhibitor]: 0.8 MMOL/KG DIET DAILY STARTING 12 D AFTER CARCINOGEN TREATMENT THROUGH ABOUT 8 MO AFTER FIRST CARCINOGEN DOSE (STUDY DU, Strain/Sex: F344/MALE, Target Tissue: Type of Lesion: COLON: ADENOCARCINOMA, Dose [Carcinogen]: 2.5 MG 1/WK FOR 2 WK", "value": "5/39 (13%), 4/29 (14%), -8%, not significant"}, {"measurement": "tumour outcome (control, treated, inhibition, significance)", "setting": "Carcinogen: N-METHYL-N-NITROSOUREA, 684-93-5, Dose [Inhibitor]: 0.8 MMOL/KG DIET DAILY STARTING 12 D AFTER CARCINOGEN TREATMENT THROUGH ABOUT 8 MO AFTER FIRST CARCINOGEN DOSE (STUDY DU, Strain/Sex: F344/MALE, Target Tissue: Type of Lesion: COLON: ADENOMA, Dose [Carcinogen]: 2.5 MG 1/WK FOR 2 WK", "value": "16/39 (41%), 9/29 (31%), 24%, not significant"}, {"measurement": "tumour outcome (control, treated, inhibition, significance)", "setting": "Carcinogen: N-METHYL-N-NITROSOUREA, 684-93-5, Dose [Inhibitor]: 1.0 MM IN DIET DAILY (328 MG/KG DIET) STARTING D 60 OF AGE UNTIL END OF STUDY (STUDY DURATION: 4 MO), Strain/Sex: SPRAGUE-DAWLEY/FEMALE, Target Tissue: Type of Lesion: MAMMARY GLAND: CARCINOMA, Dose [Carcinogen]: 2.5 MG/100 G BODY WEIGHT IN 0.9% NACL SOLUTION ADMINISTERED AT D 50 AND 57 OF AGE", "value": "87%, 54%, 38%, p<0.01"}, {"measurement": "tumour outcome (control, treated, inhibition, significance)", "setting": "Carcinogen: N-METHYL-N-NITROSOUREA, 684-93-5, Dose [Inhibitor]: 1 MMOL/KG DIET DAILY STARTING 3 D AFTER LAST CARCINOGEN DOSE THROUGH END OF STUDY (STUDY DURATION: 129 D), Strain/Sex: SPRAGUE-DAWLEY/FEMALE, Target Tissue: Type of Lesion: MAMMARY GLAND: TUMOR, Dose [Carcinogen]: 50 MG/KG BW AT BOTH 50 AND 57 D OF AGE", "value": "17/17 (100%), 12/18 (67%), 33%, p<0.001"}, {"measurement": "tumour outcome (control, treated, inhibition, significance)", "setting": "Carcinogen: N-METHYL-N-NITROSOUREA, 684-93-5, Dose [Inhibitor]: 1 MMOL/KG DIET DAILY STARTING 3 D AFTER LAST CARCINOGEN DOSE THROUGH END OF STUDY (STUDY DURATION: 182 D), Strain/Sex: SPRAGUE-DAWLEY/FEMALE, Target Tissue: Type of Lesion: MAMMARY GLAND: TUMOR, Dose [Carcinogen]: 15 MG/KG BW AT BOTH 50 AND 57 D OF AGE", "value": "12/40 (30%), 5/39 (13%), 57%, not significant"}, {"measurement": "tumour outcome (control, treated, inhibition, significance)", "setting": "Carcinogen: N-METHYL-N-NITROSOUREA, 684-93-5, Dose [Inhibitor]: 2 MMOL/KG DIET DAILY STARTING 3 D AFTER LAST CARCINOGEN DOSE THROUGH END OF STUDY (STUDY DURATION: 129 D), Strain/Sex: SPRAGUE-DAWLEY/FEMALE, Target Tissue: Type of Lesion: MAMMARY GLAND: TUMOR, Dose [Carcinogen]: 50 MG/KG BW AT BOTH 50 AND 57 D OF AGE", "value": "17/17 (100%), 2/16 (13%), 87%, p<0.001"}, {"measurement": "tumour outcome (control, treated, inhibition, significance)", "setting": "Carcinogen: N-METHYL-N-NITROSOUREA, 684-93-5, Dose [Inhibitor]: 2 MMOL/KG DIET DAILY STARTING 3 D AFTER LAST CARCINOGEN DOSE THROUGH END OF STUDY (STUDY DURATION: 182 D), Strain/Sex: SPRAGUE-DAWLEY/FEMALE, Target Tissue: Type of Lesion: MAMMARY GLAND: TUMOR, Dose [Carcinogen]: 15 MG/KG BW AT BOTH 50 AND 57 D OF AGE", "value": "12/40 (30%), 0/40 (0%), 100%, p<0.001"}, {"measurement": "tumour outcome (control, treated, inhibition, significance)", "setting": "Carcinogen: N-METHYL-N-NITROSOUREA, 684-93-5, Dose [Inhibitor]: 300 MG/KG OF DIET DAILY STARTING 7 D AFTER CARCINOGEN TREATMENT AND CONTINUING FOR DURATION OF STUDY (STUDY DURATION: 13, Strain/Sex: SPRAGUE-DAWLEY/FEMALE, Target Tissue: Type of Lesion: MAMMARY GLAND: ADENOCARCINOMA, Dose [Carcinogen]: 50 MG/KG BW IN 0.9% SALINE ONCE AT 50 D OF AGE", "value": "25/25 (100%), 23/25 (92%), 8%, not significant"}, {"measurement": "tumour outcome (control, treated, inhibition, significance)", "setting": "Carcinogen: N-METHYL-N-NITROSOUREA, 684-93-5, Dose [Inhibitor]: 328 MG/KG DIET DAILY FOR 4 MO STARTING 10 D AFTER START OF CARCINOGEN TREATMENT AND CONTINUING FOR DURATION OF STUDY (ST, Strain/Sex: SPRAGUE-DAWLEY/FEMALE, Target Tissue: Type of Lesion: MAMMARY GLAND: ADENOCARCINOMA, Dose [Carcinogen]: 2.5 MG/100 G BW IN 0.9% SALINE AND ACIDIFIED (PH 4 TO 5) WITH ACETIC ACID AT AGES 50 AND 57 D", "value": "88%, 53%, 40%, p<0.01"}, {"measurement": "tumour outcome (control, treated, inhibition, significance)", "setting": "Carcinogen: N-METHYL-N-NITROSOUREA, 684-93-5, Dose [Inhibitor]: 328 MG/KG IN DIET BEGINNING AT D 60 (STUDY DURATION: 129 D), Strain/Sex: SPRAGUE-DAWLEY/FEMALE, Target Tissue: Type of Lesion: MAMMARY GLAND: TUMOR, Dose [Carcinogen]: 2.5 MG/100 G AT 50 AND 57 D OF AGE", "value": "22/30 (73%), 11/30 (37%), 49%, p<0.005"}, {"measurement": "tumour outcome (control, treated, inhibition, significance)", "setting": "Carcinogen: N-METHYL-N-NITROSOUREA, 684-93-5, Dose [Inhibitor]: 328 MG/KG IN DIET BEGINNING AT D 60 (STUDY DURATION: 175 D), Strain/Sex: SPRAGUE-DAWLEY/FEMALE, Target Tissue: Type of Lesion: MAMMARY GLAND: TUMOR, Dose [Carcinogen]: 1.25 MG/100 G BODY WEIGHT IN 0.9% NACL SOLUTION ADMINISTERED AT D 50 AND 57 OF AGE", "value": "8/30 (27%), 3/30 (10%), 63%, p<0.01"}, {"measurement": "tumour outcome (control, treated, inhibition, significance)", "setting": "Dose [Inhibitor]: 3 UMOL/G DIET, Strain/Sex: SPRAGUE-DAWLEY/FEMALE, Target Tissue: Type of Lesion: LIVER: TUMOR, Dose [Carcinogen]: 1 PPM IN DIET", "value": "76%, 79%, -4%, not calculated"}, {"measurement": "tumour outcome (control, treated, inhibition, significance)", "setting": "Dose [Inhibitor]: 3 UMOL/G DIET, Strain/Sex: SPRAGUE-DAWLEY/MALE, Target Tissue: Type of Lesion: LIVER: TUMOR, Dose [Carcinogen]: 1 PPM IN DIET", "value": "89%, 88%, 1%, not calculated"}, {"measurement": "tumour outcome (control, treated, inhibition, significance)", "setting": "Dose [Inhibitor]: 30 UMOL/G DIET, Strain/Sex: SPRAGUE-DAWLEY/FEMALE, Target Tissue: Type of Lesion: LIVER: TUMOR, Dose [Carcinogen]: 1 PPM IN DIET", "value": "76%, 84%, -11%, not calculated"}, {"measurement": "tumour outcome (control, treated, inhibition, significance)", "setting": "Dose [Inhibitor]: 30 UMOL/G DIET, Strain/Sex: SPRAGUE-DAWLEY/MALE, Target Tissue: Type of Lesion: LIVER: TUMOR, Dose [Carcinogen]: 1 PPM IN DIET", "value": "89%, 92%, -3%, not calculated"}]}]}
